The values that follow come from PubChem BioAssay AID200 (DTP/NCI, 2004).

The structures appear in SMILES notation. Where “and” joins values, the source holds several entries; their conditions need not be identical. Equal entries are not always repeated. Toxic doses and inconclusive results are not listed.

In this test the test system is B6C3F1 mice, B16 melanoma ip, median survival T/C. Nature of the test: NCI In Vivo Anticancer Drug Screen. Data for tumor model B16 Melanoma (intraperitoneal) in B6C3F1 mice. To be noted: endpoint: median survival time, higher = longer survival. The protocol:
The antitumor activity of compounds was measured in mice bearing transplantable tumors. Survival or tumor size were measured and the results are expressed as the measurement made in the treated group (T) divided by the measurement made in the vehicle treated control group (C). The tumor model used in this assay is B16 Melanoma (intraperitoneal) in B6C3F1 mice

Turning to `Cc1nc(N)nc(N)c1-c1ccc(Cl)c(Cl)c1`, the T/C runs as follows: (dose: 0.31 mg/kg/injection, schedule: Q01DX009 (ip), vehicle: saline with Tween-80) 102 % of control; (dose: 0.62 mg/kg/injection, schedule: Q01DX009 (ip), vehicle: saline) 116 % of control; (dose: 0.63 mg/kg/injection, schedule: Q01DX009 (ip), vehicle: saline with Tween-80) 104 % of control; (dose: 1.25 mg/kg/injection, schedule: Q01DX009 (ip), vehicle: saline with Tween-80) 102 % of control; (dose: 1.25 mg/kg/injection, schedule: Q01DX009 (ip), vehicle: saline) 101 % of control and 102 % of control; (dose: 2.5 mg/kg/injection, schedule: Q01DX009 (ip), vehicle: saline with Tween-80) 113 % of control. Also, under “dose: 2.5 mg/kg/injection, schedule: Q01DX009 (ip), vehicle: saline”, the T/C is 116 % of control.

Consider `COC(=O)NC1C(C)OC(OC2C/C=C(/C)C3C=CC4C(OC5CC(OC6CCC(OC7CC(O)C(OC8CCC(O)C(C)O8)C(C)O7)C(C)O6)C(OC(C)=O)C(C)O5)C(C)CC(C)C4C3(C)/C(O)=C3/C(=O)OC4(CC(C=O)=CC(O)C4/C=C\2C)C3=O)CC1(C)[N+](=O)[O-]` (stereo unspecified), for which the T/C runs as follows: (dose: 1.25 mg/kg/injection, schedule: Q01DX009 (ip), vehicle: water) 114 % of control; (dose: 1.69 mg/kg/injection, schedule: Q03HX024 (ip), vehicle: water) 165 % of control; (dose: 2.4 mg/kg/injection, schedule: Q01DX005 (ip), vehicle: water) 124 % of control; (dose: 2.43 mg/kg/injection, schedule: Q01DX005 (iv), vehicle: water) 110 % of control; (dose: 2.5 mg/kg/injection, schedule: Q01DX009 (sc), vehicle: water) 98 % of control; (dose: 2.53 mg/kg/injection, schedule: Q03HX024 (ip), vehicle: water) 186 % of control. The T/C by setting is: (dose: 3.0 mg/kg/injection, schedule: Q01DX005 (iv), vehicle: water) 99 % of control; (dose: 3.4 mg/kg/injection, schedule: Q03HX008 (ip), vehicle: water) 161 % of control; (dose: 3.6 mg/kg/injection, schedule: Q01DX005 (ip), vehicle: water) 160 % of control; (dose: 3.63 mg/kg/injection, schedule: Q01DX005 (iv), vehicle: water) 114 % of control; (dose: 3.77 mg/kg/injection, schedule: Q03HX024 (ip), vehicle: water) 173 % of control; (dose: 4.5 mg/kg/injection, schedule: Q01DX005 (iv), vehicle: water) 105 % of control. Moreover, the T/C runs as follows: (dose: 4.5 mg/kg/injection, schedule: Q01DX009 (ip), vehicle: water) 161 % of control; (dose: 5.0 mg/kg/injection, schedule: Q01DX009 (sc), vehicle: water) 97 % of control; (dose: 5.08 mg/kg/injection, schedule: Q03HX008 (ip), vehicle: water) 171 % of control; (dose: 5.3 mg/kg/injection, schedule: Q01DX005 (ip), vehicle: water) 177 % of control; (dose: 5.4 mg/kg/injection, schedule: Q01DX005 (ip), vehicle: water) 165 % of control; (dose: 5.41 mg/kg/injection, schedule: Q01DX005 (iv), vehicle: water) 108 % of control. Moreover, the T/C was 203 % of control (dose: 5.63 mg/kg/injection, schedule: Q03HX024 (ip), vehicle: water); 101 % of control (dose: 6.0 mg/kg/injection, schedule: Q01DX009 (sc), vehicle: water); 105 % of control (dose: 6.7 mg/kg/injection, schedule: Q01DX005 (iv), vehicle: water); 165 % of control (dose: 6.7 mg/kg/injection, schedule: Q01DX009 (ip), vehicle: water); 98 % of control (dose: 6.74 mg/kg/injection, schedule: Q01DX009 (oral), vehicle: water); 153 % of control and 159 % of control (dose: 8.0 mg/kg/injection, schedule: Q01DX005 (ip), vehicle: water). In addition, the T/C (dose: 8.0 mg/kg/injection, schedule: Q01DX005 (iv), vehicle: water) was 108 % of control and 120 % of control; the T/C (dose: 8.08 mg/kg/injection, schedule: Q01DX005 (iv), vehicle: water) was 98 % of control; the T/C (dose: 8.1 mg/kg/injection, schedule: Q01DX005 (ip), vehicle: water) is 175 % of control; the T/C (dose: 9.0 mg/kg/injection, schedule: Q01DX009 (sc), vehicle: water) is 109 % of control; the T/C (dose: 9.1 mg/kg/injection, schedule: Q04DX003 (ip), vehicle: water) is 177 % of control; the T/C (dose: 10.0 mg/kg/injection, schedule: Q01DX005 (iv), vehicle: water) is 103 % of control. Besides, the T/C was 100 % of control (dose: 10.0 mg/kg/injection, schedule: Q01DX009 (sc), vehicle: water); 102 % of control (dose: 10.05 mg/kg/injection, schedule: Q01DX009 (oral), vehicle: water); 171 % of control and 197 % of control (dose: 12.0 mg/kg/injection, schedule: Q01DX005 (ip), vehicle: water); 108 % of control and 105 % of control (dose: 12.0 mg/kg/injection, schedule: Q01DX005 (iv), vehicle: water); 116 % of control (dose: 12.06 mg/kg/injection, schedule: Q01DX001 (iv), vehicle: water); 110 % of control (dose: 12.1 mg/kg/injection, schedule: Q01DX005 (iv), vehicle: water). For the same compound, the T/C runs as follows: (dose: 13.0 mg/kg/injection, schedule: Q01DX005 (ip), vehicle: water) 162 % of control; (dose: 13.0 mg/kg/injection, schedule: Q01DX009 (sc), vehicle: water) 101 % of control; (dose: 13.5 mg/kg/injection, schedule: Q04DX003 (ip), vehicle: water) 165 % of control; (dose: 15.0 mg/kg/injection, schedule: Q01DX005 (iv), vehicle: water) 110 % of control; (dose: 15.0 mg/kg/injection, schedule: Q01DX009 (ip), vehicle: water) 180 % of control; (dose: 15.0 mg/kg/injection, schedule: Q01DX009 (oral), vehicle: water) 103 % of control. Further, the T/C (dose: 18.0 mg/kg/injection, schedule: Q01DX001 (ip), vehicle: water) was 191 % of control; the T/C (dose: 18.0 mg/kg/injection, schedule: Q01DX005 (ip), vehicle: water) was 112 % of control; the T/C (dose: 18.0 mg/kg/injection, schedule: Q01DX005 (iv), vehicle: water) was 110 % of control and 97 % of control and 104 % of control; the T/C (dose: 18.1 mg/kg/injection, schedule: Q01DX005 (ip), vehicle: water) was 159 % of control; the T/C (dose: 20.0 mg/kg/injection, schedule: Q01DX005 (ip), vehicle: water) is 121 % of control; the T/C (dose: 20.0 mg/kg/injection, schedule: Q01DX009 (sc), vehicle: water) is 95 % of control and 103 % of control. Also, the T/C was 178 % of control (dose: 20.2 mg/kg/injection, schedule: Q04DX003 (ip), vehicle: water); 96 % of control (dose: 22.39 mg/kg/injection, schedule: Q01DX009 (oral), vehicle: water); 203 % of control (dose: 27.0 mg/kg/injection, schedule: Q01DX001 (ip), vehicle: water); 108 % of control (dose: 27.0 mg/kg/injection, schedule: Q01DX001 (iv), vehicle: water); 112 % of control and 106 % of control (dose: 27.0 mg/kg/injection, schedule: Q01DX005 (iv), vehicle: water); 97 % of control (dose: 30.0 mg/kg/injection, schedule: Q01DX009 (sc), vehicle: water). For the same compound, the T/C (dose: 33.41 mg/kg/injection, schedule: Q01DX009 (oral), vehicle: water) is 101 % of control; the T/C (dose: 40.5 mg/kg/injection, schedule: Q01DX001 (ip), vehicle: water) was 226 % of control; the T/C (dose: 40.5 mg/kg/injection, schedule: Q01DX001 (iv), vehicle: water) is 121 % of control; the T/C (dose: 49.87 mg/kg/injection, schedule: Q01DX009 (oral), vehicle: water) was 100 % of control.

With `CCCOC(=O)c1ccc(O)cc1`, the T/C reads like this: (dose: 12.5 mg/kg/injection, schedule: Q01DX009 (ip), vehicle: saline with Tween-80) 103 % of control; (dose: 25.0 mg/kg/injection, schedule: Q01DX009 (ip), vehicle: saline with Tween-80) 109 % of control; (dose: 50.0 mg/kg/injection, schedule: Q01DX009 (ip), vehicle: saline with Tween-80) 109 % of control; (dose: 100.0 mg/kg/injection, schedule: Q01DX009 (ip), vehicle: saline with Tween-80) 89 % of control; (dose: 200.0 mg/kg/injection, schedule: Q01DX009 (ip), vehicle: saline with Tween-80) 107 % of control; (dose: 400.0 mg/kg/injection, schedule: Q01DX009 (ip), vehicle: saline with Tween-80) 100 % of control.
